# From PubChem BioAssay (NCI)
#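 Following 48 hours of exposure in 96-well plates, responses at five concentrations were used to interpolate endpoints linearly. At the TGI there is no net growth.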
# Legend:
# Assay in all cases: NCI anticancer screen, dose series, 48 h
# M14 melanoma = system: M14 melanoma
# CAKI-1 renal = system: CAKI-1 renal
# CCRF-CEM leukemia = system: CCRF-CEM leukemia
# HCC-2998 colon = system: HCC-2998 colon
# DMS 114 small cell lung = system: DMS 114 small cell lung
# U251 CNS = system: U251 CNS
# HL-60(TB) leukemia = system: HL-60(TB) leukemia
# LXFL 529 NSCLC = system: LXFL 529 NSCLC
# DLD-1 colon = system: DLD-1 colon
# OVCAR-4 ovarian = system: OVCAR-4 ovarian
# NCI-H23 lung = system: NCI-H23 lung
# MOLT-4 leukemia = system: MOLT-4 leukemia
# SW-620 colon = system: SW-620 colon
# SN12C renal = system: SN12C renal
# SNB-75 CNS = system: SNB-75 CNS
# EKVX NSCLC = system: EKVX NSCLC
# HCT-15 colon = system: HCT-15 colon
# HOP-18 NSCLC = system: HOP-18 NSCLC
# TK-10 renal = system: TK-10 renal
# COLO 205 colon = system: COLO 205 colon
# SF-268 CNS = system: SF-268 CNS
# SF-539 CNS = system: SF-539 CNS
# OVCAR-8 ovarian = system: OVCAR-8 ovarian
# KM20L2 colon = system: KM20L2 colon
# NCI-H460 lung = system: NCI-H460 lung
# OVCAR-3 ovarian = system: OVCAR-3 ovarian
# UACC-257 melanoma = system: UACC-257 melanoma
# OVCAR-5 ovarian = system: OVCAR-5 ovarian
# SNB-78 CNS = system: SNB-78 CNS
# NCI-H522 lung = system: NCI-H522 lung
# HOP-92 NSCLC = system: HOP-92 NSCLC
# K-562 leukemia = system: K-562 leukemia
# RXF 393 renal = system: RXF 393 renal
# SF-295 CNS = system: SF-295 CNS
# SK-OV-3 ovarian = system: SK-OV-3 ovarian
# LOX IMVI melanoma = system: LOX IMVI melanoma
# KM12 colon = system: KM12 colon
# A549 NSCLC = system: A549 NSCLC
# SR leukemia = system: SR leukemia
# UACC-62 melanoma = system: UACC-62 melanoma
# XF 498 CNS = system: XF 498 CNS
# HCT-116 colon = system: HCT-116 colon
# 786-0 renal = system: 786-0 renal
# DMS 273 small cell lung = system: DMS 273 small cell lung
# HT29 colon = system: HT29 colon
# SK-MEL-5 melanoma = system: SK-MEL-5 melanoma
# NCI-H226 lung = system: NCI-H226 lung
# HOP-62 NSCLC = system: HOP-62 NSCLC
# SNB-19 CNS = system: SNB-19 CNS
# RPMI-8226 leukemia = system: RPMI-8226 leukemia
# MALME-3M melanoma = system: MALME-3M melanoma
# A498 renal = system: A498 renal
# UO-31 renal = system: UO-31 renal
# IGROV1 ovarian = system: IGROV1 ovarian
# M19-MEL melanoma = system: M19-MEL melanoma
# SK-MEL-28 melanoma = system: SK-MEL-28 melanoma
# ACHN renal = system: ACHN renal
# SK-MEL-2 melanoma = system: SK-MEL-2 melanoma
smiles,measurement,setting,value
N#CC(C#N)=c1[nH]c2cccc3c2-c2c(cccc2c3=C(C#N)C#N)[nH]1,TGI,M14 melanoma,> 100 µM
same,TGI,CAKI-1 renal,> 100 µM
same,TGI,CCRF-CEM leukemia,> 100 µM
same,TGI,HCC-2998 colon,> 100 µM
same,TGI,DMS 114 small cell lung,> 100 µM
same,TGI,U251 CNS,> 100 µM
same,TGI,HL-60(TB) leukemia,> 100 µM
same,TGI,LXFL 529 NSCLC,> 100 µM
same,TGI,DLD-1 colon,> 100 µM
same,TGI,OVCAR-4 ovarian,> 100 µM
same,TGI,NCI-H23 lung,> 100 µM
same,TGI,MOLT-4 leukemia,> 100 µM
same,TGI,SW-620 colon,> 100 µM
same,TGI,SN12C renal,> 100 µM
same,TGI,SNB-75 CNS,> 100 µM
same,TGI,EKVX NSCLC,> 100 µM
same,TGI,HCT-15 colon,> 100 µM
same,TGI,HOP-18 NSCLC,> 100 µM
same,TGI,TK-10 renal,> 100 µM
same,TGI,COLO 205 colon,> 100 µM
same,TGI,SF-268 CNS,> 100 µM
same,TGI,SF-539 CNS,> 100 µM
same,TGI,OVCAR-8 ovarian,> 100 µM
same,TGI,KM20L2 colon,> 100 µM
same,TGI,NCI-H460 lung,> 100 µM
same,TGI,OVCAR-3 ovarian,> 100 µM
same,TGI,UACC-257 melanoma,> 100 µM
same,TGI,OVCAR-5 ovarian,> 100 µM
same,TGI,SNB-78 CNS,> 100 µM
same,TGI,NCI-H522 lung,> 100 µM
same,TGI,HOP-92 NSCLC,> 100 µM
same,TGI,K-562 leukemia,> 100 µM
same,TGI,RXF 393 renal,> 100 µM
same,TGI,SF-295 CNS,> 100 µM
same,TGI,SK-OV-3 ovarian,> 100 µM
same,TGI,LOX IMVI melanoma,> 100 µM
same,TGI,KM12 colon,> 100 µM
same,TGI,A549 NSCLC,> 100 µM
same,TGI,SR leukemia,> 100 µM
same,TGI,UACC-62 melanoma,> 100 µM
same,TGI,XF 498 CNS,> 100 µM
same,TGI,HCT-116 colon,> 100 µM
same,TGI,786-0 renal,> 100 µM
same,TGI,DMS 273 small cell lung,> 100 µM
same,TGI,HT29 colon,> 100 µM
same,TGI,SK-MEL-5 melanoma,> 100 µM
same,TGI,NCI-H226 lung,> 100 µM
same,TGI,HOP-62 NSCLC,> 100 µM
same,TGI,SNB-19 CNS,> 100 µM
same,TGI,RPMI-8226 leukemia,> 100 µM
same,TGI,MALME-3M melanoma,> 100 µM
same,TGI,A498 renal,> 100 µM
same,TGI,UO-31 renal,> 100 µM
same,TGI,IGROV1 ovarian,> 100 µM
Cc1cc(C)n(CCNCCn2nc(C)cc2C)n1,TGI,M14 melanoma,> 100 µM
same,TGI,CAKI-1 renal,> 100 µM
same,TGI,CCRF-CEM leukemia,> 100 µM
same,TGI,HCC-2998 colon,> 100 µM
same,TGI,DMS 114 small cell lung,> 100 µM
same,TGI,U251 CNS,> 100 µM
same,TGI,HL-60(TB) leukemia,> 100 µM
same,TGI,LXFL 529 NSCLC,> 100 µM
same,TGI,DLD-1 colon,> 100 µM
same,TGI,OVCAR-4 ovarian,> 100 µM
same,TGI,NCI-H23 lung,> 100 µM
same,TGI,MOLT-4 leukemia,> 100 µM
same,TGI,SW-620 colon,> 100 µM
same,TGI,SN12C renal,> 100 µM
same,TGI,SNB-75 CNS,> 100 µM
same,TGI,EKVX NSCLC,> 100 µM
same,TGI,HCT-15 colon,> 1 µM
same,TGI,TK-10 renal,> 100 µM
same,TGI,COLO 205 colon,> 100 µM
same,TGI,SF-268 CNS,> 100 µM
same,TGI,SF-539 CNS,> 100 µM
same,TGI,OVCAR-8 ovarian,> 100 µM
same,TGI,KM20L2 colon,> 100 µM
same,TGI,NCI-H460 lung,> 100 µM
same,TGI,OVCAR-3 ovarian,> 100 µM
same,TGI,UACC-257 melanoma,> 100 µM
same,TGI,M19-MEL melanoma,> 100 µM
same,TGI,SNB-78 CNS,> 100 µM
same,TGI,SK-MEL-28 melanoma,> 100 µM
same,TGI,NCI-H522 lung,> 100 µM
same,TGI,HOP-92 NSCLC,> 100 µM
same,TGI,K-562 leukemia,> 100 µM
same,TGI,RXF 393 renal,> 100 µM
same,TGI,SF-295 CNS,> 100 µM
same,TGI,SK-OV-3 ovarian,> 100 µM
same,TGI,LOX IMVI melanoma,> 100 µM
same,TGI,KM12 colon,> 100 µM
same,TGI,A549 NSCLC,> 100 µM
same,TGI,SR leukemia,> 100 µM
same,TGI,ACHN renal,> 100 µM
same,TGI,UACC-62 melanoma,> 100 µM
same,TGI,XF 498 CNS,> 1 µM
same,TGI,SK-MEL-2 melanoma,> 1000 nM
same,TGI,HCT-116 colon,> 100 µM
same,TGI,786-0 renal,> 100 µM
same,TGI,DMS 273 small cell lung,> 100 µM
same,TGI,SK-MEL-5 melanoma,> 100 µM
same,TGI,HOP-62 NSCLC,> 100 µM
same,TGI,SNB-19 CNS,> 100 µM
same,TGI,RPMI-8226 leukemia,> 100 µM
same,TGI,A498 renal,> 100 µM
same,TGI,UO-31 renal,> 100 µM
